Laboratory results from patent publication US20050014766A1, “Use of n-(indolecarbonyl-)piperazine derivatives” (priority 2002, published 2005).

What was measured:
mice [1] = test: four plate test (model of acute stress anxiety); type: in vivo, mouse; settings: 5 minute test period
Description: A typical model of acute stress anxiety is the “four plate test” as described by C. Aron et al., Neuropharmacology 1971, 10: 459-469.
The device consists of a small box whose base is composed of four metal plates. Each time the mouse moves from one plate to the next, it receives a short current pulse on the foot, thus reducing the investigative behaviour. The number of changes from one plate to the next which occur with punishment (i.e. the number of current pulses accepted by the animal) is recorded over a test period of 5 minutes.

monkeys = test: DMTS method (delayed matching to sample) in monkeys; type: in vivo, monkey
Description: Of the learning models, the DMTS method (DMTS=delayed matching to sample) in monkeys (Buccafusco, J. J. et al., Psychopharmacology, 1995; 120: 256-266; Buccafusco, J. J. et al., Drug Dev. Res., 1996; 38: 196-203; Prendergast, M. A. et al., Pharmacol. Biochem. Behav., 1997; 56: 81-87) is potentially of interest since the various aspects of learning and memory can be measured in this method. An experiment begins with the illumination of a sample key provided with one of three coloured discs. The monkeys are taught to press the illuminated sample key in order to initiate the experiment. After the delay interval, the two keys available for selection illuminate, but not the sample key. One of the two keys available for selection is offered with the colour that the sample key had before the delay interval, while the other (wrong) key available for selection has one of the two other colours. If the monkey makes the correct assignment (i.e. if it presses the key available for selection which has the same colour as the stimulus key), the response is rewarded. […] Finally, all stimulus equalisation measures were assigned to the delay duration. […]

[2] = tested on: recombinant in-bred mice (crossing of the strains C57ML/6J and DBA/2J); test: pre-pulse inhibition in recombinant in-bred mice with inherently poor pre-pulse inhibition; type: in vivo; settings: recombinant mouse strain with poor pre-pulse inhibition
Description: A typical animal model of schizotypical personality disorders and the prevention of schizophrenia in first-degree relatives is restricted pre-pulse inhibition. Pre-pulse inhibition is a non-species-specific phenomenon in which the normal reflex reactions to discrete sensory events are reduced if slight prior stimulation has been carried out in advance; pre-pulse inhibition can be used to assess sensomotory gating processes. In patients with schizotypical personality disorders and their first-degree relatives (in whom there is a high risk of the development of schizotypical personality disorders), the normal function of pre-pulse inhibition is disturbed (Braff, D. et al., Psychophysiology, 1978; 15:339-343; Braff, D., Arch Gen Psychiatry, 1992; 49:206-215; Bolino, F. et al., Biol Psychiatry, 1994; 36:670-679). Recombinant in-bred mice having an inherently poor pre-pulse inhibition (crossing of the strains C57ML/6J and DBA/2J) represent a corresponding animal model (McCaughran, J. A. Jr. et al., Psychopharmacology 1997; 134:131-140; McCaughran, J. A. Jr. et al., Behav. Genetics, 1999; 29:21-30.).

mice [3] = test: hyperlocomotory activity induced by dizocilpine; type: in vivo, mouse
Description: Animal models of treatment-resistant schizophrenia and psychosis in tardive dyskinesia are so-called stimulant-induced psychoses (Ellison, G., Brain Res. Rev. 1994; 137:193-197). Chronic misuse of ‘dopamine agonists’, such as, for example, amphetamine or cocaine, or antagonists of N-methyl-D-aspartate (NMDA), such as, for example, ketamine, phencyclidine and dizocilpine, causes a syndrome of behavioural effects which has many features in common with the symptom complex of schizophrenia, i.e. these substances induce schizophrenia-like symptoms in healthy people and accelerate psychotic reactions in stabilised schizophrenic patients (Luby, E. D. et al., Am. Med. Assoc. Arch. Neurol. Psychiatry, 1959; 119:61-67; Lahti, A. C. et al., Neuropsychopharmacology, 1995; 13:9-19; Malhotra, A. K. et al., Neuropsychopharmacology, 1996; 14:301-307; Adler, C. M. et al., Biol. Psychiatry 1998; 43:811-816). In rodents, these stimulants cause extreme hyperlocomotory activity (Schaefer, G. J. et al., Neuropharmacology 1984; 23:909-914; Millan, M. J. et al., Eur. J. Neurosci. 1999; 11:419-432; O'Neill, M. F. et al., Psychopharmacology, 1999, 145:237-250).

mice [4] = test: light-dark choice test (model of generalised anxiety disorders); type: in vivo, mouse; settings: period of 5 minutes
Experimental: A typical model of generalised anxiety disorders is the “light-dark choice test” as described by J. N. Crawly, Pharmacol. Biochem Behav. 1981, 15: 695-699.
The corresponding device for the selection of brightness or darkness consists of two boxes connected to one another, one box being darkened and the other being brightly illuminated. A mouse is placed in one of the boxes, and it is measured how much time the mouse spends in the illuminated box over a period of 5 minutes. Normal mice only go into the illuminated compartment rarely and spend almost all the time in the dark compartment.

rats = test: T-labyrinth learning and memory model in rats; type: in vivo, rat; settings: after denial of food
Description: In a learning and memory model in rats, the T-labyrinth method is used, in which rats, after denial of food, have to learn to find a reward in the arm of the labyrinth which is opposite the arm in which the reward was offered in the previous experiment (Moran, P. et al., Brain Res. 1992; 569:156-158).

mice [5] = test: isolation-induced fighting behaviour in mice (aggression model); type: in vivo, mouse
Description: A typical animal model of aggression is the isolation-induced fighting behaviour in mice (Paivarinta, P., Pharmacol. Biochem. Behav., 1992; 42: 35-39; Haller, J. et al., Psychopharmacology, 1996; 126: 345-350). […] The number of bites or bite attacks can be used as a measure of the aggression.

With `N#Cc1c[nH]c2c(C(=O)N3CCN(CCc4ccc(F)cc4)CC3)cccc12` [(3-cyano-1H-indol-7-yl)[4-(4-fluorophenethyl)piperazin-1-yl]methanone] the “number of changes with punishment” value (mice [1]) was “increases the number of changes with punishment”, the “DMTS hit rate and general aspects of working memory” value (monkeys) was “clearly improves the DMTS hit rate” and the “deficits in pre-pulse inhibition” value [2] was “significantly reduces the deficits in pre-pulse inhibition”. For the same compound, the “hyperlocomotory activity induced by dizocilpine” value (mice [3]) was “significantly reduces hyperlocomotory activity”, the “time spent by the mice in the illuminated compartment” value (mice [4]) was “increases the time spent by the mice in the illuminated compartment” and the “learning and memory in the T-labyrinth” value (rats) was “has memory-promoting effects in the learning process and facilitates better and faster learning with a shorter performance time”. For the same compound, the isolation-induced fighting behaviour (mice [5]) was “reduces the isolation-induced fighting behaviour”.
